Among the data in PubChem BioAssay AID651729 (NMMLSC, 2012) are EC50 values, retold here.

As usually defined, the EC50 is the concentration needed to bring the measured effect to its halfway point.

This assay has as its system AM2.2 cells FAP-GPR32, fluorogen binding, flow cytometry MCF. In words: interference with FAP fluorogen signal – AM2.2 cells, flow cytometry, powder set 2, counter-screen for beta2AR agonist internalization project, dose response (AID 651729). In general terms: A flow cytometer gives signals particle by particle.

With `CN(CC(=O)N1CCN(c2ccccn2)CC1)S(=O)(=O)c1ccc(Cl)cc1`, the EC50 was 5.23 nM.
In the case of `CCOC(=O)c1ccc(NC(=O)Cn2nnc(-c3ccccc3)n2)cc1`, the EC50 was 134 nM.
For the molecule `CC(=O)Nc1ccc(S(=O)(=O)NCCc2csc(-c3cccnc3)n2)cc1`, the EC50 was 11 nM.
To `CCOC(=O)c1ccc(NC(=O)COc2ccc(S(=O)(=O)N3CCCC3)cc2)cc1` belongs 124 nM.
